The target of this test is T1, full length human recombinant glucocorticoid receptor (Homo sapiens, UniProt P04150).
T1 construct: partially purified full length human recombinant glucocorticoid receptor; purchased Panvera/Invitrogen PV4302
T1 sequence (P04150 1-777): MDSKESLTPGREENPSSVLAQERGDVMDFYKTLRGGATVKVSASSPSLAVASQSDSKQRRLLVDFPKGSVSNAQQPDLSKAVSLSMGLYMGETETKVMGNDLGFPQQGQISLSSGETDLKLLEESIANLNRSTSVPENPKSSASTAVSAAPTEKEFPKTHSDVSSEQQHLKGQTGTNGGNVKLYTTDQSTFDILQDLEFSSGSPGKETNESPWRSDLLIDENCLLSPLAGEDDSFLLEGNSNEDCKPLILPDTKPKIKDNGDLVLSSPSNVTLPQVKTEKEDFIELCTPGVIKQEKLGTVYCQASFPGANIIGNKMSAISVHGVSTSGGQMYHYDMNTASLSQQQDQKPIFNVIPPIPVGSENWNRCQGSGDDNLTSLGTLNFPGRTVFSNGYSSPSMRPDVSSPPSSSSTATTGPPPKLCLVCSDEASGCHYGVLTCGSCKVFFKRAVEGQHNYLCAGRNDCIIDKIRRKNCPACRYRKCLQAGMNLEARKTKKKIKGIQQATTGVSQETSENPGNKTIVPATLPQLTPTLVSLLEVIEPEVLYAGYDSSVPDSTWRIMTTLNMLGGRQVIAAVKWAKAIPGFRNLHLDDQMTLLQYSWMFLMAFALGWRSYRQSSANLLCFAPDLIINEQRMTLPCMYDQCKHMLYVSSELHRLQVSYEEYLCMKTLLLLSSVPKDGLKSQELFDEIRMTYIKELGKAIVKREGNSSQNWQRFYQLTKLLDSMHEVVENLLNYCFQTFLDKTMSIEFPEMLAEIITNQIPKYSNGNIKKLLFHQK
Nature of the test: Glucocorticoid Receptor Binding Assay (fluorescence polarization competitor assay, Fluormone GS Far Red tracer). The procedure, abridged:
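Serially diluted compounds competed with the tight-binding far-red fluorescent ligand for recombinant full-length human glucocorticoid receptor plus GR-stabilizing peptide (screening buffer pH 7.4; 3 h, 22 °C, dark). Polarization (610-660 nm) gave IC50 via sigmoidal dose-response fits, and Ki was derived by Cheng-Prusoff from tracer concentration and Kd.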
In general terms: In fluorescence polarisation assays a small probe gives low polarisation when free and higher when bound to something large.
In the case of `CCn1cc([C@@](O)([C@@H](C)c2ccc(-c3ccc(C(=O)OC)c(OC)c3)cc2Cl)C(F)(F)F)ccc1=O` (stereo in doubt) [Example 187, 3′-Chloro-4′-[2-(1-ethyl-6-oxo-1,6-dihydro-pyridin-3-yl)-3,3,3-trifluoro-2-hydroxy-1-methyl-propyl]-3-methoxy-biphenyl-4-carboxylic acid methyl ester], the Ki stood at 7.4 nM.
Next, `CCn1cc([C@@](O)([C@@H](C)c2ccc(-c3ccc(C(=O)O)c(OC)c3)cc2Cl)C(F)(F)F)ccc1=O` (stereo in doubt) [Example 188, 3′-Chloro-4′-[2-(1-ethyl-6-oxo-1,6-dihydro-pyridin-3-yl)-3,3,3-trifluoro-2-hydroxy-1-methyl-propyl]-3-methoxy-biphenyl-4-carboxylic acid]: 98.7 nM.
Next, `C[C@@H](c1cc(Oc2ccc(C(=O)O)c(Cl)c2)ccc1Cl)[C@](O)(c1ccc(=O)n(C)c1)C(F)(F)F` (stereo in doubt) [Example 190, 2-Chloro-4-{4-chloro-3-[3,3,3-trifluoro-2-hydroxy-1-methyl-2-(1-methyl-6-oxo-1,6-dihydro-pyridin-3-yl)-propyl]-phenoxy}-benzoic acid]: 51.4 nM.
With `CCOC(=O)c1cc(Oc2ccc(Cl)c([C@H](C)[C@](O)(c3ccc(=O)n(C)c3)C(F)(F)F)c2)ccc1F` (stereo in doubt) [Example 193, 5-{4-Chloro-3-[3,3,3-trifluoro-2-hydroxy-1-methyl-2-(1-methyl-6-oxo-1,6-dihydro-pyridin-3-yl)-propyl]-phenoxy}-2-fluoro-benzoic acid ethyl ester] the figure was 10.3 nM; with `C[C@@H](c1cc(Oc2ccc(F)c(C(=O)O)c2)ccc1Cl)[C@](O)(c1ccc(=O)n(C)c1)C(F)(F)F` (stereo in doubt) [Example 194, 5-{4-Chloro-3-[3,3,3-trifluoro-2-hydroxy-1-methyl-2-(1-methyl-6-oxo-1,6-dihydro-pyridin-3-yl)-propyl]-phenoxy}-2-fluoro-benzoic acid], 32.3 nM; with `CCOC(=O)c1cc(Oc2ccc(Cl)c([C@H](C)[C@](O)(c3ccc(=O)n(C)c3)C(F)(F)F)c2)ccc1Cl` (stereo in doubt) [Example 195, 2-Chloro-5-{4-chloro-3-[3,3,3-trifluoro-2-hydroxy-1-methyl-2-(1-methyl-6-oxo-1,6-dihydro-pyridin-3-yl)-propyl]-phenoxy}-benzoic acid ethyl ester], 17 nM.
Turning to `C[C@@H](c1cc(Oc2ccc(Cl)c(C(=O)O)c2)ccc1Cl)[C@](O)(c1ccc(=O)n(C)c1)C(F)(F)F` (stereo in doubt) [Example 196, 2-Chloro-5-{4-chloro-3-[3,3,3-trifluoro-2-hydroxy-1-methyl-2-(1-methyl-6-oxo-1,6-dihydro-pyridin-3-yl)-propyl]-phenoxy}-benzoic acid], the Ki was 45.8 nM.
With `C[C@H](c1ccc(Oc2ccc(C(=O)O)cc2)c(Cl)c1Cl)[C@@](O)(c1ccc(=O)n(C)c1)C(F)(F)F` (stereo in doubt) [Example 198, 4-{2,3-Dichloro-4-[3,3,3-trifluoro-2-hydroxy-1-methyl-2-(1-methyl-6-oxo-1,6-dihydro-pyridin-3-yl)-propyl]-phenoxy}-benzoic acid] the figure was 3.4 nM; with `COC(=O)c1ccc(Oc2ccc([C@@H](C)[C@@](O)(c3ccc(=O)n(C)c3)C(F)(F)F)c(Cl)c2Cl)cc1F` (stereo in doubt) [Example 199, 4-{2,3-Dichloro-4-[3,3,3-trifluoro-2-hydroxy-1-methyl-2-(1-methyl-6-oxo-1,6-dihydro-pyridin-3-yl)-propyl]-phenoxy}-2-fluoro-benzoic acid methyl ester], 2.6 nM; with `C[C@H](c1ccc(Oc2ccc(C(=O)O)c(F)c2)c(Cl)c1Cl)[C@@](O)(c1ccc(=O)n(C)c1)C(F)(F)F` (stereo in doubt) [Example 200, 4-{2,3-Dichloro-4-[3,3,3-trifluoro-2-hydroxy-1-methyl-2-(1-methyl-6-oxo-1,6-dihydro-pyridin-3-yl)-propyl]-phenoxy}-2-fluoro-benzoic acid], 2.3 nM.

As a reminder, the Ki is the dissociation constant of the complex between target and ligand, obtained from inhibition or displacement.
